In ChEMBL document CHEMBL4507299, “Data for DCP probe PF-04554878” (2021):

Legend:
[1] = biological target: Tyrosine-protein kinase JAK3 (Homo sapiens, UniProt P52333); assay: JAK3 Invitrogen kinase activity assay
[2] = biological target: Myosin light chain kinase 2, skeletal/cardiac muscle (Homo sapiens) (UniProt Q9H1R3); assay: MYLK2 Invitrogen kinase activity assay; details: Compound concentration 1.0 uM
[3] = biological target: T1, Inhibitor of nuclear factor kappa-B kinase subunit epsilon (Homo sapiens) (UniProt Q14164); assay: IKKi Invitrogen kinase activity assay; details: Compound concentration 1.0 uM
T1 sequence (whole entry): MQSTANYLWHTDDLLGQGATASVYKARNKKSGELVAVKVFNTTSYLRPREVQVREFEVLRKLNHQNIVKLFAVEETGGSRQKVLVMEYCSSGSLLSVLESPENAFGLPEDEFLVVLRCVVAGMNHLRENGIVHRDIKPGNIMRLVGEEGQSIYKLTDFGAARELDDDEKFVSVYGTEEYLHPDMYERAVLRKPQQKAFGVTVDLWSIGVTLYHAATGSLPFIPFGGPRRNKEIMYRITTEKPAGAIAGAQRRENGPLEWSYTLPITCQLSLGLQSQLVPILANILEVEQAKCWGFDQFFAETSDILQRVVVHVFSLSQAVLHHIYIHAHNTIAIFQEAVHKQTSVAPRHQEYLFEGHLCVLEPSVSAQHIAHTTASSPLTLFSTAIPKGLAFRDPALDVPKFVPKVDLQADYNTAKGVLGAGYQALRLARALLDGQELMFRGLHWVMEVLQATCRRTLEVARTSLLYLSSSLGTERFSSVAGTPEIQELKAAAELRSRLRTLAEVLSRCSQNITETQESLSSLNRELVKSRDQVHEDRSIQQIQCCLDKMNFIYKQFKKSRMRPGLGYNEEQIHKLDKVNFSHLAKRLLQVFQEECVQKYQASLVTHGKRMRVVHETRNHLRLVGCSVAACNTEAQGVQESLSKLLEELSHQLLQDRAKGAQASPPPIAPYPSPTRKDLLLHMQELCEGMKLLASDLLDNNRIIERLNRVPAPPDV

[4] = biological target: T2, Aurora kinase A (Homo sapiens) (UniProt O14965); assay: (§1) Aurora-A Invitrogen kinase activity assay; details: Compound concentration 1.0 uM
T2 sequence (whole entry): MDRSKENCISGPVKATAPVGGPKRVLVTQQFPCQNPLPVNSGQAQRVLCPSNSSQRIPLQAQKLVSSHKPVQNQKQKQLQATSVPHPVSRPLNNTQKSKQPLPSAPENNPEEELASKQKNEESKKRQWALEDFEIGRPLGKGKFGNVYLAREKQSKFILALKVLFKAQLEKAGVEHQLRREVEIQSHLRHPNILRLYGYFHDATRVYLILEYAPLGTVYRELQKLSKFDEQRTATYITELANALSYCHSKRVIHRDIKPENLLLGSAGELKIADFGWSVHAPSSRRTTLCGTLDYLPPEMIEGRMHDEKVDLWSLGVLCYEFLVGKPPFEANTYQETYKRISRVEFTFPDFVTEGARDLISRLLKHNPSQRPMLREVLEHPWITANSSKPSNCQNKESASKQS

[5] = biological target: Aurora kinase A (Homo sapiens, UniProt O14965); assay: as §1
[6] = biological target: Tyrosine-protein kinase BTK (Homo sapiens) (UniProt Q06187); assay: BTK Invitrogen kinase activity assay; details: Compound concentration 1.0 uM
Chain of Tyrosine-protein kinase BTK (Homo sapiens) (Q06187 whole entry): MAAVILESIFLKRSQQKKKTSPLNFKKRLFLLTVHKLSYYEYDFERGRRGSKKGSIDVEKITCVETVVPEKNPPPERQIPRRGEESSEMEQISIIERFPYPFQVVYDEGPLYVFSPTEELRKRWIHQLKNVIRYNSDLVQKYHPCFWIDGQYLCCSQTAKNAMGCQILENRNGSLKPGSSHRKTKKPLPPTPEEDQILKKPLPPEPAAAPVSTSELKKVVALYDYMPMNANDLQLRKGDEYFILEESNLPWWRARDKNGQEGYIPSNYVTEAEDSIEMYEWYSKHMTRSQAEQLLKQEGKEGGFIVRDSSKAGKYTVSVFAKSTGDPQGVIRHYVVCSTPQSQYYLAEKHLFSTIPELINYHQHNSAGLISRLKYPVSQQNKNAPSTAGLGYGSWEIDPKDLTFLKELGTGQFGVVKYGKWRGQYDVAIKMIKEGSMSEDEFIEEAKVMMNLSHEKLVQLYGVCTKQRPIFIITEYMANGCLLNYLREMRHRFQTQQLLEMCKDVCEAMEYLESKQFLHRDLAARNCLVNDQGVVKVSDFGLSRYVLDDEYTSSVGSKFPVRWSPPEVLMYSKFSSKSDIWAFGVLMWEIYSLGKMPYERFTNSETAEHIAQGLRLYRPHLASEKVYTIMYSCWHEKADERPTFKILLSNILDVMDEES

[7] = biological target: Fibroblast growth factor receptor 1 (Homo sapiens) (UniProt P11362); assay: FGFR1 Invitrogen kinase activity assay; details: Compound concentration 1.0 uM
[8] = biological target: D(3) dopamine receptor (Homo sapiens) (UniProt P35462); details: Compound concentration 10.0 uM
Chain of D(3) dopamine receptor (Homo sapiens) (P35462 whole entry): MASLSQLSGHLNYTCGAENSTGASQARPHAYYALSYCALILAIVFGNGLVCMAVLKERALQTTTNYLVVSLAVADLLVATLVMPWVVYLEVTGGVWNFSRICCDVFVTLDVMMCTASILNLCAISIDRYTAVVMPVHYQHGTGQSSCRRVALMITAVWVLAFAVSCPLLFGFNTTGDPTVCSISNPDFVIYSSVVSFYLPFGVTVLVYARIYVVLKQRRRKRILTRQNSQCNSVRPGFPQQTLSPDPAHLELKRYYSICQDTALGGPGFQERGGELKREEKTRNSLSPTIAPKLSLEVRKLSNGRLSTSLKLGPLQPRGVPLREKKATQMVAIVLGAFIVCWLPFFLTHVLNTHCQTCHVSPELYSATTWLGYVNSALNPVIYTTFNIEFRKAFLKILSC

[9] = biological target: Hepatocyte growth factor receptor (Homo sapiens) (UniProt P08581); assay: MET Invitrogen kinase activity assay; details: Compound concentration 1.0 uM
Chain of Hepatocyte growth factor receptor (Homo sapiens) (P08581 whole entry): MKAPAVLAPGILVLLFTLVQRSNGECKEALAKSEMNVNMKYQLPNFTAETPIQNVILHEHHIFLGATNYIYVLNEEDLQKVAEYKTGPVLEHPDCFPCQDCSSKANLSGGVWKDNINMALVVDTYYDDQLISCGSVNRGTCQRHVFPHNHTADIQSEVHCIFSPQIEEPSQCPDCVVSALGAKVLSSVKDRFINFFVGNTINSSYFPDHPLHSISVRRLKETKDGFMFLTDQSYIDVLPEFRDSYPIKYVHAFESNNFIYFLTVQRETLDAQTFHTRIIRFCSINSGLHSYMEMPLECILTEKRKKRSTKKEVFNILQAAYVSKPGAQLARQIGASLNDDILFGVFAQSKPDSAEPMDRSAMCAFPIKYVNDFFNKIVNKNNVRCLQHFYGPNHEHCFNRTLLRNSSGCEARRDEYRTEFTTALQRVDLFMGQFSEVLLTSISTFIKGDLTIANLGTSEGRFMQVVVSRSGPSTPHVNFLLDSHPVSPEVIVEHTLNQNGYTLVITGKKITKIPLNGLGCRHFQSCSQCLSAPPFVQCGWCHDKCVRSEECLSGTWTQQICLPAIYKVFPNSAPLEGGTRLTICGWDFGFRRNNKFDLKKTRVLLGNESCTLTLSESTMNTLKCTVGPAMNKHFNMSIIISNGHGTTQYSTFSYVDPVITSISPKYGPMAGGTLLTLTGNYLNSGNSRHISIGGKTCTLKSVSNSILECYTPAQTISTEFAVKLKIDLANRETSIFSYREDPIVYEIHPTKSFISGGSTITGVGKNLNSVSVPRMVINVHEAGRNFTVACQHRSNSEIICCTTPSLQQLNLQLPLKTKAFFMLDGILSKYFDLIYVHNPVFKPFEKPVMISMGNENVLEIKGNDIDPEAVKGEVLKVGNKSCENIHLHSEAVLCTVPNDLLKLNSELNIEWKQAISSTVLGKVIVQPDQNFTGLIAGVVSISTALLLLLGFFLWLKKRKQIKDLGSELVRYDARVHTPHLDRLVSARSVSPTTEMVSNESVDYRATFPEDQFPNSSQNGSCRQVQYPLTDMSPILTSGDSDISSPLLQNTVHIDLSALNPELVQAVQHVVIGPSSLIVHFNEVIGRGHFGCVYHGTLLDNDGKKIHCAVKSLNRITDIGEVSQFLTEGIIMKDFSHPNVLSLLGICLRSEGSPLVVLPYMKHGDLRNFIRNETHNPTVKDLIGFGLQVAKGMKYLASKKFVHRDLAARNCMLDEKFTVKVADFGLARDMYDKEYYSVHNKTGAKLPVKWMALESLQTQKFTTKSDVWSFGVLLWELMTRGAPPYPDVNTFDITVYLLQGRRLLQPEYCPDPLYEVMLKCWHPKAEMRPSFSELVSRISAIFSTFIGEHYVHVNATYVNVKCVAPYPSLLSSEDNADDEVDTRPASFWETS

[10] = biological target: Calcium/calmodulin-dependent protein kinase type 1 (Homo sapiens) (UniProt Q14012); assay: CAMK1 Invitrogen kinase activity assay; details: Compound concentration 1.0 uM
Chain of Calcium/calmodulin-dependent protein kinase type 1 (Homo sapiens) (Q14012 whole entry, looked up): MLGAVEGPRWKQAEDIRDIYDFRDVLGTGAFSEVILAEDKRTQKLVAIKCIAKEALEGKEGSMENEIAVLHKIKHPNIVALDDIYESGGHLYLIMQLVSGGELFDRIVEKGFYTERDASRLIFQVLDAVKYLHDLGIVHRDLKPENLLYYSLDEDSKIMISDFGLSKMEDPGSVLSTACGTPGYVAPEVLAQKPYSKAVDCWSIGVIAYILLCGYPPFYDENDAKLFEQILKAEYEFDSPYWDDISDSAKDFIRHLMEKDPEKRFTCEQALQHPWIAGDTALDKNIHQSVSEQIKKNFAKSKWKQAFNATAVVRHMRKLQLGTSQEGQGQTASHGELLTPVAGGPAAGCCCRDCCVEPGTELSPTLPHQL

[11] = biological target: GABA-A receptor; anion channel (Rattus norvegicus) (UniProt O09028+P15431+P18506+P18508+P19969+P20236+P23574+P23576+P28471+P28473+P30191+P62813+P63079+P63138+Q91ZM7+Q9ES14); details: Compound concentration 10.0 uM
[12] = biological target: Sigma intracellular receptor 2 (Homo sapiens, UniProt Q5BJF2); assay: GPCRScan assay: inhibition of Sigma 2; set-up: radioligand conc. used [nm] 5.0, parental cells HEKT
Chain of Sigma intracellular receptor 2 (Q5BJF2 whole entry): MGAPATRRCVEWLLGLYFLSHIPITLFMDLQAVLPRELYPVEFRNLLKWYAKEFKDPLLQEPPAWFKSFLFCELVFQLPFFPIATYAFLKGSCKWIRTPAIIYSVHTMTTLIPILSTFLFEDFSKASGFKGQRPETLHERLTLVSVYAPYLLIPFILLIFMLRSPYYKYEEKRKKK

Chain of Myosin light chain kinase 2, skeletal/cardiac muscle (Homo sapiens) (Q9H1R3 whole entry): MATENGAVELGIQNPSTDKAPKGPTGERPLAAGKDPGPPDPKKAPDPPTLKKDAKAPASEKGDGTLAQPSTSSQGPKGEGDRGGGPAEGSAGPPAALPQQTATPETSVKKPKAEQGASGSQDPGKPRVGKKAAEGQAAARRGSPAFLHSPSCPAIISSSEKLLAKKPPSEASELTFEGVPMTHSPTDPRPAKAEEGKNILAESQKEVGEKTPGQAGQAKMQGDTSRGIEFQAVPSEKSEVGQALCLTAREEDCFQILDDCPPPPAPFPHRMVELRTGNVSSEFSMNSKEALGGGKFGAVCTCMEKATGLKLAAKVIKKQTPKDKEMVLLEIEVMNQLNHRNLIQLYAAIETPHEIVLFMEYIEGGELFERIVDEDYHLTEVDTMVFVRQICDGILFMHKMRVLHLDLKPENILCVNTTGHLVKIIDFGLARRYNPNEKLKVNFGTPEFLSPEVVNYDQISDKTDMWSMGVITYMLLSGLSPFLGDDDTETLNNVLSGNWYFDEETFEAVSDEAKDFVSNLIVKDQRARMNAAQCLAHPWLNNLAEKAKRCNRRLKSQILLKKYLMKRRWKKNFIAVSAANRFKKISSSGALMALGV
Chain of Tyrosine-protein kinase JAK3 (P52333 whole entry): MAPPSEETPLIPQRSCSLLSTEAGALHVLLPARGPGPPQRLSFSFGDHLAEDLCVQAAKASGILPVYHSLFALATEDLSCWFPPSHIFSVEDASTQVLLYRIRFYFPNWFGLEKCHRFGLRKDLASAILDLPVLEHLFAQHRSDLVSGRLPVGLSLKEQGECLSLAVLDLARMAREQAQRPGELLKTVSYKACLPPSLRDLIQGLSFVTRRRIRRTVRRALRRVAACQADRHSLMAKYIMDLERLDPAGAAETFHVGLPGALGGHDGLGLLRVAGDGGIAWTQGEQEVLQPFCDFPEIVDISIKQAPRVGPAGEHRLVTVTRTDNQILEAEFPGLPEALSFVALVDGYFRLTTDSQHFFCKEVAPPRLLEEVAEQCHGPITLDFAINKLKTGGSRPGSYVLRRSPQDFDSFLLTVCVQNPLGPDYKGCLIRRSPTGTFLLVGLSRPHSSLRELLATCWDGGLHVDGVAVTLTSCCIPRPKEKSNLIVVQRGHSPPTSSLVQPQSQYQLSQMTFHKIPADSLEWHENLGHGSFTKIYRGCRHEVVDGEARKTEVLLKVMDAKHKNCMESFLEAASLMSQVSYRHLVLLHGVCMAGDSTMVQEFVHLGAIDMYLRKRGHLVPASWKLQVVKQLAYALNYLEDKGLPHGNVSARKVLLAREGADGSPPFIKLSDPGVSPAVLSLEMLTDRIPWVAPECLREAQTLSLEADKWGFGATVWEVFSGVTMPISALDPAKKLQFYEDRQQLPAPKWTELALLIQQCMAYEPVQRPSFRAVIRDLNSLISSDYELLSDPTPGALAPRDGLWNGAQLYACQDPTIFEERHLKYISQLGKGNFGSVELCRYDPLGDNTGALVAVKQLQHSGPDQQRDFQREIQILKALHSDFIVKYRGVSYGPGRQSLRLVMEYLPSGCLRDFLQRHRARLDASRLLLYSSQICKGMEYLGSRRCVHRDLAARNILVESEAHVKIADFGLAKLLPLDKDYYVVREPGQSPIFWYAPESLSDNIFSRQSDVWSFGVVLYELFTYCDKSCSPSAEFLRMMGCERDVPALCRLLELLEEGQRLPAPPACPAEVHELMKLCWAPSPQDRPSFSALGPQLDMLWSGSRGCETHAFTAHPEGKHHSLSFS

CNC(=O)c1ccc(Nc2ncc(C(F)(F)F)c(NCc3nccnc3N(C)S(C)(=O)=O)n2)cc1 [DEFACTINIB] gave an IC50 [1] greater than 1000 nM, an inhibition [2] of 8% and an inhibition [3] of 8%. The inhibition [4] was 87%, the IC50 [5] was 135 nM and the inhibition [6] was 14%. For the same molecule, the inhibition [7] was 64%, the inhibition [8] was 11.3% and the inhibition [9] was 54%. The inhibition [10] was 0%.

For CN(c1ccnc(CNc2nc(Nc3ccc4c(c3)CC(=O)N4)ncc2C(F)(F)F)n1)S(C)(=O)=O [PF-00911705], the inhibition [11] was 10.3% and the Ki [12] was 2120 nM.
